The term IC50 denotes the concentration that gives 50% inhibition.

The target of this experiment is T1, Calpain-1 catalytic subunit (Homo sapiens, UniProt P07384).
T1 sequence (P07384 whole entry): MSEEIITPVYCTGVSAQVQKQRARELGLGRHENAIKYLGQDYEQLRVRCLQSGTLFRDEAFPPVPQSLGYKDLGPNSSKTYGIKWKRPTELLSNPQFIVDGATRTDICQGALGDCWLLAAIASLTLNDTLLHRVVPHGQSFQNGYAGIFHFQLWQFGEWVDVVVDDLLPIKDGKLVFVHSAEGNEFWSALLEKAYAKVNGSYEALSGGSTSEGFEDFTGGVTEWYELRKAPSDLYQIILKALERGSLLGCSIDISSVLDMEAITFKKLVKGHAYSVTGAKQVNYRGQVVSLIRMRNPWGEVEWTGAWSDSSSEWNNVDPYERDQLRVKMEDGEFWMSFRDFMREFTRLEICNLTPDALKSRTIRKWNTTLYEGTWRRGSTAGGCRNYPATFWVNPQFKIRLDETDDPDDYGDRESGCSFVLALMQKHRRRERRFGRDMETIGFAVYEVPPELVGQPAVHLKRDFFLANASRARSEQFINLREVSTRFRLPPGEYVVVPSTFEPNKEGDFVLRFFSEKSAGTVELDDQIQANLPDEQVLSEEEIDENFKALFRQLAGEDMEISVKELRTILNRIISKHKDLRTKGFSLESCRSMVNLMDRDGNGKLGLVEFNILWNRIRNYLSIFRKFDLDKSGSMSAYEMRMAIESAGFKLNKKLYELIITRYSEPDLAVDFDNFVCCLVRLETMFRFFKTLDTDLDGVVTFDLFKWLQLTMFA
Put plainly: Inhibition of human erythrocytes mu-calpain by spectrofluorimeter.
`CNC(=O)C(=O)[C@H](Cc1ccccc1)NC(=O)c1[nH]c(=O)ccc1C` registered an IC50 of 91.4 µM. Turning to `CCNC(=O)C(=O)[C@H](Cc1ccccc1)NC(=O)c1[nH]c(=O)ccc1C`, the IC50 was found to be 40.2 µM. Then `Cc1ccc(=O)[nH]c1C(=O)N[C@@H](Cc1ccccc1)C(=O)C(=O)NC(C)C`, with over 100 µM; and `Cc1ccc(=O)[nH]c1C(=O)N[C@@H](Cc1ccccc1)C(=O)C(=O)NCc1ccccc1`, with 64.6 µM. With `Cc1ccc(=O)[nH]c1C(=O)N[C@@H](Cc1ccccc1)C(=O)C(=O)NCc1ccc(F)cc1` the figure was 22.1 µM; with `Cc1ccc(=O)[nH]c1C(=O)N[C@@H](Cc1ccccc1)C(=O)C(=O)NCCc1ccccc1`, 7.41 µM. `COc1ccc(CCNC(=O)C(=O)[C@H](Cc2ccccc2)NC(=O)c2[nH]c(=O)ccc2C)cc1` had an IC50 of 6.19 µM. Then `COc1ccc(CNC(=O)C(=O)[C@H](Cc2ccccc2)NC(=O)c2[nH]c(=O)ccc2C)cc1`, with 6.19 µM; and `Cc1ccc(=O)[nH]c1C(=O)N[C@@H](Cc1ccccc1)C(=O)C(=O)NCCc1ccccn1`, with 34 µM. Molecule `Cc1ccc(=O)[nH]c1C(=O)N[C@@H](Cc1ccccc1)C(=O)C(N)=O` gave an IC50 of 2.81 µM. Then `COc1ccc(CNC(=O)C(=O)[C@H](Cc2ccccc2)NC(=O)c2[nH]c(=O)ccc2C)cc1OC`, with 35.3 µM. Then `Cc1ccc(=O)[nH]c1C(=O)N[C@@H](Cc1ccccc1)C(=O)C(=O)NCc1ccccn1`, with 84.8 µM.

The record behind these values is ChEMBL document CHEMBL1138543, “Design and synthesis of calpain inhibitory 6-pyridone 2-carboxamide derivatives” (Eur J Med Chem, 2009).
